“And” between values parts separate entries of the source, which are not always exact repeats. Equal entries are not always repeated.
Tested on: Swiss mice, Sarcoma 180 sc, mean tumor weight T/C
Experiment: NCI In Vivo Anticancer Drug Screen. Data for tumor model Sarcoma 180 (subcutaneous) in Swiss mice
Settings: endpoint: mean tumor weight, higher = larger tumour
In short: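 Readout is the ratio of treated-group measurement to vehicle-control measurement (T/C), based on survival or tumor size in mice carrying transplanted tumors.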

[1] = dose: 60.0 mg/kg/injection, schedule: Q01DX007 (ip), vehicle: carboxymethylcellulose (CMC)
[2] = dose: 90.0 mg/kg/injection, schedule: Q01DX007 (ip), vehicle: carboxymethylcellulose (CMC)
[3] = dose: 3.0 mg/kg/injection, schedule: Q#A X014 (ip), vehicle: carboxymethylcellulose (CMC)

O=C(N/N=C/C=C/c1ccccc1)[C@H](O)[C@@H](O)C(=O)N/N=C/C=C/c1ccccc1
T/C (dose: 111.0 mg/kg/injection, schedule: Q#A X014 (ip), vehicle: saline): 57 % of control
T/C (dose: 166.5 mg/kg/injection, schedule: Q#A X014 (ip), vehicle: saline): 40 % of control
T/C (dose: 250.0 mg/kg/injection, schedule: Q#A X014 (ip), vehicle: saline): 57 % of control

COC(=O)C1(N)CCCC1
T/C [1]: 59 % of control
T/C [2]: 42 % of control
T/C (dose: 135.0 mg/kg/injection, schedule: Q01DX007 (ip), vehicle: carboxymethylcellulose (CMC)): 33 % of control
T/C (dose: 202.0 mg/kg/injection, schedule: Q01DX007 (ip), vehicle: carboxymethylcellulose (CMC)): 20 % of control

O=P(N1CCCC1)(N1CC1)N1CC1
T/C (dose: 1.0 mg/kg/injection, schedule: Q#A X014 (ip), vehicle: saline): 50 % of control and 54 % of control
T/C (dose: 1.3 mg/kg/injection, schedule: Q#A X014 (ip), vehicle: carboxymethylcellulose (CMC)): 76 % of control
T/C (dose: 1.5 mg/kg/injection, schedule: Q#A X014 (ip), vehicle: saline): 10 % of control and 22 % of control
T/C (dose: 2.0 mg/kg/injection, schedule: Q#A X014 (ip), vehicle: carboxymethylcellulose (CMC)): 66 % of control
T/C (dose: 2.0 mg/kg/injection, schedule: Q#A X014 (ip), vehicle: saline): 15 % of control
T/C [3]: 46 % of control
T/C (dose: 8.0 mg/kg/injection, schedule: Q01DX007 (ip), vehicle: carboxymethylcellulose (CMC)): 23 % of control
T/C (dose: 12.0 mg/kg/injection, schedule: Q01DX007 (ip), vehicle: carboxymethylcellulose (CMC)): 11 % of control

O=C(O)CC[S-].[Ag+]
T/C (dose: 187.5 mg/kg/injection, schedule: Q#A X014 (ip), vehicle: methylcellulose (MC)): 59 % of control and 68 % of control
T/C (dose: 281.0 mg/kg/injection, schedule: Q#A X014 (ip), vehicle: methylcellulose (MC)): 69 % of control

CN1CCC23c4c5ccc(O)c4OC2C(O)C=CC3C1C5 (stereo not drawn)
T/C (dose: 62.0 mg/kg/injection, schedule: Q01DX007 (ip), vehicle: saline): 90 % of control
T/C (dose: 125.0 mg/kg/injection, schedule: Q01DX007 (ip), vehicle: saline): 99 % of control
T/C (dose: 250.0 mg/kg/injection, schedule: Q01DX007 (ip), vehicle: saline): 48 % of control

CC(=O)C(CCC(=O)O)(CCC(=O)O)c1ccccc1
T/C (dose: 15.0 mg/kg/injection, schedule: Q#A X014 (ip), vehicle: other): 83 % of control
T/C (dose: 30.0 mg/kg/injection, schedule: Q#A X014 (ip), vehicle: other): 106 % of control
T/C (dose: 60.0 mg/kg/injection, schedule: Q#A X014 (ip), vehicle: other): 98 % of control
T/C (dose: 120.0 mg/kg/injection, schedule: Q#A X014 (ip), vehicle: other): 112 % of control

Cc1cc2nc(Cc3nc4cc(C)c(C)cc4[nH]3)[nH]c2cc1C
T/C (dose: 20.0 mg/kg/injection, schedule: Q01DX007 (ip), vehicle: carboxymethylcellulose (CMC)): 86 % of control
T/C (dose: 40.0 mg/kg/injection, schedule: Q01DX007 (ip), vehicle: carboxymethylcellulose (CMC)): 85 % of control
T/C [1]: 80 % of control and 81 % of control
T/C (dose: 80.0 mg/kg/injection, schedule: Q01DX007 (ip), vehicle: carboxymethylcellulose (CMC)): 102 % of control
T/C [2]: 67 % of control
T/C (dose: 120.0 mg/kg/injection, schedule: Q01DX007 (ip), vehicle: carboxymethylcellulose (CMC)): 122 % of control
T/C (dose: 160.0 mg/kg/injection, schedule: Q01DX007 (ip), vehicle: carboxymethylcellulose (CMC)): 77 % of control
T/C (dose: 180.0 mg/kg/injection, schedule: Q01DX007 (ip), vehicle: carboxymethylcellulose (CMC)): 89 % of control
T/C (dose: 210.0 mg/kg/injection, schedule: Q01DX007 (ip), vehicle: carboxymethylcellulose (CMC)): 61 % of control
T/C (dose: 270.0 mg/kg/injection, schedule: Q01DX007 (ip), vehicle: carboxymethylcellulose (CMC)): 77 % of control
T/C (dose: 320.0 mg/kg/injection, schedule: Q01DX007 (ip), vehicle: carboxymethylcellulose (CMC)): 90 % of control and 100 % of control
T/C (dose: 478.0 mg/kg/injection, schedule: Q01DX007 (ip), vehicle: carboxymethylcellulose (CMC)): 57 % of control
T/C (dose: 717.0 mg/kg/injection, schedule: Q01DX007 (ip), vehicle: carboxymethylcellulose (CMC)): 65 % of control

O=C1C=CC(=O)N1c1ccc2c(c1)C(Br)c1ccccc1-2 (stereo not drawn)
T/C [3]: 97 % of control
T/C (dose: 5.5 mg/kg/injection, schedule: Q#A X014 (ip), vehicle: carboxymethylcellulose (CMC)): 73 % of control
T/C (dose: 11.0 mg/kg/injection, schedule: Q#A X014 (ip), vehicle: carboxymethylcellulose (CMC)): 109 % of control
T/C (dose: 11.0 mg/kg/injection, schedule: Q#A X014 (ip), vehicle: methylcellulose (MC)): 45 % of control and 52 % of control
T/C (dose: 16.5 mg/kg/injection, schedule: Q#A X014 (ip), vehicle: carboxymethylcellulose (CMC)): 102 % of control
T/C (dose: 16.5 mg/kg/injection, schedule: Q#A X014 (ip), vehicle: methylcellulose (MC)): 32 % of control and 50 % of control
T/C (dose: 25.0 mg/kg/injection, schedule: Q#A X014 (ip), vehicle: carboxymethylcellulose (CMC)): 99 % of control
T/C (dose: 25.0 mg/kg/injection, schedule: Q#A X014 (ip), vehicle: methylcellulose (MC)): 40 % of control
T/C (dose: 37.5 mg/kg/injection, schedule: Q#A X014 (ip), vehicle: carboxymethylcellulose (CMC)): 89 % of control

CSCS(=O)C[C@H](CO)NC(=O)/C=C/c1c(C)[nH]c(=O)[nH]c1=O (stereo partly drawn)
T/C (dose: 0.03 mg/kg/injection, schedule: Q#A X014 (ip), vehicle: saline): 64 % of control
T/C (dose: 0.06 mg/kg/injection, schedule: Q01DX007 (ip), vehicle: saline): 81 % of control
T/C (dose: 0.06 mg/kg/injection, schedule: Q01DX007 (sc), vehicle: saline): 107 % of control
T/C (dose: 0.06 mg/kg/injection, schedule: Q#A X014 (ip), vehicle: saline): 54 % of control
T/C (dose: 0.12 mg/kg/injection, schedule: Q#A X014 (ip), vehicle: saline): 44 % of control
T/C (dose: 0.13 mg/kg/injection, schedule: Q01DX007 (ip), vehicle: saline): 50 % of control
T/C (dose: 0.13 mg/kg/injection, schedule: Q01DX007 (sc), vehicle: saline): 81 % of control
T/C (dose: 0.19 mg/kg/injection, schedule: Q03DX003 (ip), vehicle: saline): 88 % of control
T/C (dose: 0.25 mg/kg/injection, schedule: Q01DX007 (ip), vehicle: saline): 39 % of control
T/C (dose: 0.25 mg/kg/injection, schedule: Q01DX007 (iv), vehicle: saline): 87 % of control
T/C (dose: 0.25 mg/kg/injection, schedule: Q01DX007 (oral), vehicle: saline): 97 % of control
T/C (dose: 0.25 mg/kg/injection, schedule: Q01DX007 (sc), vehicle: saline): 78 % of control
T/C (dose: 0.25 mg/kg/injection, schedule: Q#A X014 (ip), vehicle: saline): 42 % of control
T/C (dose: 0.38 mg/kg/injection, schedule: Q03DX003 (ip), vehicle: saline): 76 % of control
T/C (dose: 0.4 mg/kg/injection, schedule: Q#A X014 (ip), vehicle: carboxymethylcellulose (CMC)): 58 % of control
T/C (dose: 0.5 mg/kg/injection, schedule: Q01DX007 (ip), vehicle: saline): 32 % of control
T/C (dose: 0.5 mg/kg/injection, schedule: Q01DX007 (iv), vehicle: saline): 86 % of control
T/C (dose: 0.5 mg/kg/injection, schedule: Q01DX007 (oral), vehicle: saline): 106 % of control
T/C (dose: 0.5 mg/kg/injection, schedule: Q01DX007 (sc), vehicle: saline): 17 % of control
T/C (dose: 0.62 mg/kg/injection, schedule: Q#A X014 (ip), vehicle: carboxymethylcellulose (CMC)): 27 % of control
T/C (dose: 0.75 mg/kg/injection, schedule: Q#A X014 (ip), vehicle: carboxymethylcellulose (CMC)): 20 % of control
T/C (dose: 1.0 mg/kg/injection, schedule: Q01DX007 (iv), vehicle: saline): 58 % of control
T/C (dose: 1.0 mg/kg/injection, schedule: Q01DX007 (oral), vehicle: saline): 59 % of control
T/C (dose: 1.5 mg/kg/injection, schedule: Q03DX003 (ip), vehicle: saline): 89 % of control
T/C (dose: 2.0 mg/kg/injection, schedule: Q01DX007 (oral), vehicle: saline): 99 % of control
T/C (dose: 62.5 mg/kg/injection, schedule: Q#A X014 (ip), vehicle: carboxymethylcellulose (CMC)): 79 % of control
T/C (dose: 125.0 mg/kg/injection, schedule: Q#A X014 (ip), vehicle: carboxymethylcellulose (CMC)): 74 % of control

Source: PubChem BioAssay AID342 (DTP/NCI, 2004)
